Key:
[1] = system: TNFα production in LPS-stimulated human monocytes; assay: Cot Monocyte TNFα Cell Based Assay; conditions: Homo sapiens, Monocyte, TNFα in LPS-stimulated human monocytes; read-out: EC50 TNF
Method in brief: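 TNFα release quantified by two-antibody TR-FRET, normalised to unstimulated (0%) and LPS-stimulated (100%) wells. Cells got a 1 h compound exposure at 37° C in 0.5% DMSO before 4 h challenge with 50 pg/ml LPS, at 5,000 cells/well.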

[2] = molecular target: T1, human Cot catalytic domain (30-397 amino acids) (Homo sapiens, UniProt P41279); assay: High Throughput Cot Biochemical Assay (KinEASE TR-FRET); conditions: Cot KinEASE TR-FRET (HTRF) biochemical assay, 400 μM ATP; read-out: IC50 HTRF
T1 construct: Purified recombinant human Cot catalytic domain (30-397 amino acids) was purchased from Cama Biosciences; purchased Cama Biosciences (so in the source)
T1 sequence (P41279 30-397): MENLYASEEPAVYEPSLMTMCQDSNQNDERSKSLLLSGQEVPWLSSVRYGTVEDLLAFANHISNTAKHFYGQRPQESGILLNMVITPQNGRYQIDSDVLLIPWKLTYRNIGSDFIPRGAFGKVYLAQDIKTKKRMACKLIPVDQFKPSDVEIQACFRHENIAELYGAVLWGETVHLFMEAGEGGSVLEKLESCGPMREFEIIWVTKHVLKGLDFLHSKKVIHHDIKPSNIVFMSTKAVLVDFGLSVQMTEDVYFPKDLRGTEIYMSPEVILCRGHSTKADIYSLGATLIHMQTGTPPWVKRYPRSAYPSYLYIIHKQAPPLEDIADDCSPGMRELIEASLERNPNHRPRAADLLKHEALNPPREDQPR
Method in brief: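 TR-FRET (KinEASE) read-out: Eu-labelled phospho-specific antibody binds XL665-tagged STK3 peptide (1 μM) phosphorylated by 5 nM human Cot kinase domain (residues 30-397). Reaction at 400 μM ATP, pH 7.0 MOPS buffer with 10 mM MgOAc, 1 mM DTT and 0.1% DMSO.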

Row | EC50 [1] [nM] | IC50 [2] [nM] | SMILES
1 | 1260 | 48 | Cc1cc(Nc2c(C#N)cnc3c(Cl)cc(N[C@@H](c4ccc(F)cc4)c4c[nH]nn4)cc23)cnc1F [Example 375, (S)-8-chloro-4-((6-fluoro-5-methylpyridin-3-yl)amino)-6-(((4-fluorophenyl)(1H-1,2,3-triazol-4-yl)methyl)amino) quinoline-3-carbonitrile]
2 | 1610 | 47 | N#Cc1cnc2c(Cl)cc(N[C@H](c3c[nH]nn3)c3ccccc3Cl)cc2c1Nc1cnc(F)c(F)c1 [Example 376, (S)-8-chloro-6-(((2-chlorophenyl)(1H-1,2,3-triazol-4-yl)methyl)amino)-4-((5,6-difluoropyridin-3-yl)amino)quinoline-3-carbonitrile]
3 | > 10000 | 495 | N#Cc1cnc2c(Cl)cc(N[C@@H](c3ccc(F)cc3)c3cn(C(F)F)nn3)cc2c1Nc1cnc(F)c(F)c1 [Example 377, (S)-8-chloro-6-(((1-(difluoromethyl)-1H-1,2,3-triazol-4-yl)(4-fluorophenyl)methyl)amino)-4-((5,6-difluoropyridin-3-yl)amino)quinoline-3-carbonitrile]
4 | > 10000 | > 10000 | N#Cc1cnc2c(Cl)cc(N[C@@H](c3ccc(F)cc3)c3cnn(C(F)F)n3)cc2c1Nc1cnc(F)c(F)c1 [Example 378, (S)-8-chloro-6-(((2-(difluoromethyl)-2H-1,2,3-triazol-4-yl)(4-fluorophenyl)methyl)amino)-4-((5,6-difluoropyridin-3-yl)amino)quinoline-3-carbonitrile]
5 | 191 | 30 | CC[C@@H](Nc1c(C#N)cnc2c(Cl)cc(N[C@@H](c3ccc(F)cc3)c3cn(C4(C(F)(F)F)CC4)nn3)cc12)c1ccccc1 [Example 379, 8-chloro-6-(((S)-(4-fluorophenyl)(1-(1-(trifluoromethyl)cyclopropyl)-1H-1,2,3-triazo1-4-yl)methyl)amino)-4-(((R)-1-phenylpropyl)amino)quinoline-3-carbonitrile]
6 | 1280 | 78 | N#Cc1cnc2c(Cl)cc(N[C@@H](c3ccc(F)cc3)c3cn(C4CCOCC4)nn3)cc2c1Nc1cnc(F)c(F)c1 [Example 380, (S)-8-chloro-4-((5,6-difluoropyridin-3-yl)amino)-6-(((4-fluorophenyl) (1-(tetrahydro-2H-pyran-4-yl)-1H-1,2,3-triazol-4-yl)methyl)amino)quinoline-3-carbonitrile]
7 | 644 | 44 | [2H][C@](Nc1cc(Cl)c2ncc(C#N)c(Nc3cnc(F)c(F)c3)c2c1)(c1ccc(F)cc1)c1cn(C(C)(C)C)nn1 [Example 381, (S)-6-(((1-(tert-butyl)-1H-1,2,3-triazol-4-yl)(4-fluorophenyl)methyl-d)amino)-8-chloro-4-((5,6-difluoropyridin-3-yl)amino)quinoline-3-carbonitrile]
8 | 323 | 8 | [2H][C@](Nc1cc(Cl)c2ncc(C#N)c(Nc3cnc(F)c(F)c3)c2c1)(c1ccc(F)cc1)c1cn(C2CC2)nn1 [Example 382, (S)-8-chloro-6-(((1-cyclopropyl-1H-1,2,3-triazol-4-yl)(4-fluorophenyl)methyl-d)amino)-4-((5,6-difluoropyridin-3-yl)amino)quinoline-3-carbonitrile]
9 | 148 | 11 | CC(C)n1cc([C@@H](Nc2cc(Cl)c3ncc(C#N)c(Nc4ccc(F)c(Cl)c4)c3c2)c2cccc(S(=O)(=O)N(C)C)c2)nn1 [Example 383, (S)-3-(((8-chloro-4-((3-chloro-4-fluorophenyl)amino)-3-cyanoquinolin-6-yl)amino)(1-isopropyl-1H-1,2,3-triazol-4-yl)methyl)-N,N-dimethylbenzenesulfonamide]
10 | 832 | 8 | N#Cc1cnc2c(Cl)cc(N[C@@H](c3ccc(F)cc3)c3cn(CC4(O)CC4)nn3)cc2c1Nc1cnc(F)c(F)c1 [Example 384, (S)-8-chloro-4-((5,6-difluoropyridin-3-yl)amino)-6-(((4-fluorophenyl)(1-((1-hydroxycyclopropyl)methyl)-1H-1,2,3-triazol-4-yl)methyl)amino)quinoline-3-carbonitrile]
11 | 692 | 4 | CC(C)n1cc([C@@H](Nc2cc(Cl)c3ncc(C#N)c(Nc4cnc(F)c(F)c4)c3c2)c2cccc(-c3nccn3C)c2)nn1 [Example 385, (S)-8-chloro-4-((5,6-difluoropyridin-3-yl)amino)-6-(((1-isopropyl-1H-1,2,3-triazol-4-yl)(3-(1-methyl-1H-imidazol-2-yl)phenyl)methyl)amino) quinoline-3-carbonitrile]
12 | 1440 | 5 | Cn1ccnc1-c1cccc([C@H](Nc2cc(Cl)c3ncc(C#N)c(Nc4cnc(F)c(F)c4)c3c2)c2c[nH]nn2)c1 [Example 386, (S)-8-chloro-4-((5,6-difluoropyridin-3-yl)amino)-6-(((3-(1-methyl-1H-imidazol-2-yl)phenyl)(1H-1,2,3-triazol-4-yl)methyl)amino)quinoline-3-carbonitrile]
13 | 809 | 50 | [2H][C@](Nc1cc(Cl)c2ncc(C#N)c(Nc3cnc(F)c(F)c3)c2c1)(c1ccc(Cl)cc1)c1c[nH]nn1 [Example 387, (S)-8-chloro-6-(((4-chlorophenyl)(1H-1,2,3-triazol-4-yl)methyl-d)amino)-4-((5,6-difluoropyridin-3-yl)amino)quinoline-3-carbonitrile]
14 | 1260 | 83 | N#Cc1cnc2c(Cl)cc(N[C@@H](c3ccc(F)cc3)c3cn(-c4ccncc4)nn3)cc2c1Nc1cnc(F)c(F)c1 [Example 388, (S)-8-chloro-4-((5,6-difluoropyridin-3-yl)amino)-6-(((4-fluorophenyl)(1-(pyridin-4-yl)-1H-1,2,3-triazol-4-yl)methyl)amino)quinoline-3-carbonitrile]
15 | 817 | 37 | N#Cc1cnc2c(Cl)cc(N[C@@H](c3ccc(F)cc3)c3cn(-c4cccnc4)nn3)cc2c1Nc1cnc(F)c(F)c1 [Example 389, (S)-8-chloro-4-((5,6-difluoropyridin-3-yl)amino)-6-(((4-fluorophenyl) (1-(pyridin-3-yl)-1H-1,2,3-triazol-4-yl)methyl)amino)quinoline-3-carbonitrile]
16 | 318 | 30 | CC[C@@H](Nc1c(C#N)cnc2c(Cl)cc(N[C@@H](c3ccc(F)cc3)c3cn(-c4ccncc4)nn3)cc12)c1ccccc1 [Example 390, 8-chloro-6-(((S)-(4-fluorophenyl)(1-(pyridin-4-yl)-1H-1,2,3-triazol-4-yl)methyl)amino)-4-(((R)-1-phenylpropyl)amino)quinoline-3-carbonitrile]
17 | 214 | 17 | CC[C@@H](Nc1c(C#N)cnc2c(Cl)cc(N[C@@H](c3ccc(F)cc3)c3cn(-c4cccnc4)nn3)cc12)c1ccccc1 [Example 391, 8-chloro-6-(((S)-(4-fluorophenyl)(1-(pyridin-3-yl)-1H-1,2,3-triazol-4-yl)methyl)amino)-4-(((R)-1-phenylpropyl)amino)quinoline-3-carbonitrile]
18 | 333 | 179 | CC(C)(C)CNc1c(C#N)cnc2c(Cl)cc(N[C@@H](c3ccc(F)cc3)c3cn(-c4ccncc4)nn3)cc12 [Example 393, (S)-8-chloro-6-(((4-fluorophenyl)(1-(pyridin-4-yl)-1H-1,2,3-triazol-4-yl)methyl)amino)-4-(neopentylamino)quinoline-3-carbonitrile]
19 | 160 | 36 | CC(C)(C)CNc1c(C#N)cnc2c(Cl)cc(N[C@@H](c3ccc(F)cc3)c3cn(-c4cccnc4)nn3)cc12 [Example 394, (S)-8-chloro-6-(((4-fluorophenyl)(1-(pyridin-3-yl)-1H-1,2,3-triazol-4-yl)methyl)amino)-4-(neopentylamino)quinoline-3-carbonitrile]
20 | 273 | 47 | CC(C)(C)CNc1c(C#N)cnc2c(Cl)cc(N[C@@H](c3ccc(F)cc3)c3cn(-c4ccccc4)nn3)cc12 [Example 395, (S)-8-chloro-6-(((4-fluorophenyl)(1-phenyl-1H-1,2,3-triazol-4-yl)methyl)amino)-4-(neopentylamino)quinoline-3-carbonitrile]
21 | 726 | 125 | CCC(Nc1c(C#N)cnc2c(Cl)cc(N[C@@H](c3ccc(F)cc3)c3c[nH]nn3)cc12)c1ccccc1F (stereo partly drawn) [Example 397, 8-chloro-6-(((S)-(4-fluorophenyl)(1H-1,2,3-triazol-4-yl)methyl)amino)-4-((1-(2-fluorophenyl)propyl)amino) quinoline-3-carbonitrile]
22 | 1050 | 28 | CC1(CNc2c(C#N)cnc3c(Cl)cc(N[C@@H](c4ccc(F)cc4)c4c[nH]nn4)cc23)CCOCC1 [Example 398, (S)-8-chloro-6-(((4-fluorophenyl)(1H-1,2,3-triazol-4-yl)methyl)amino)-4-(((4-methyltetrahydro-2H-pyran-4-yl)methyl)amino)quinoline-3-carbonitrile]
23 | 891 | 38 | CC(C)C(C)(C)CNc1c(C#N)cnc2c(Cl)cc(N[C@@H](c3ccc(F)cc3)c3c[nH]nn3)cc12 [Example 399, (S)-8-chloro-6-(((4-fluorophenyl)(1H-1,2,3-triazol-4-yl)methyl)amino)-4-((2,2,3-trimethylbutyl)amino) quinoline-3-carbonitrile]

— patent US10316017B2, “COT modulators and methods of use thereof” (Gilead Sciences, Inc., priority 2015, dated 2019)
